Results from patent EP0986401B1, “P-SELECTIN TRANSLOCATION TO VASCULAR EPITHELIAL LUMEN BY IONIZING RADIATION” (ARCH DEVELOPMENT CORPORATION, priority 1997, dated 1998).
Entries after “also recorded” stand apart in the source; their conditions may differ. Where a name gives a salt, the structure may show the parent alone. Read-outs that look alike come from different tables or passages of the source. Each block holds one molecule with its values, some of them ahead of it. Starred links: 1 amine or outer side, 2 acyl side, 3 side chain; linkers in the order of their positions; H or OH if unused. Positions of bridges follow the written chain, without caps; N, C: chain ends. Non-standard residues stand in square brackets, D forms with d. Residues, ends and D or L forms follow the SMILES beside them. Chains are numbered I, II in the order given. Actinocin(9to1) = Cc1c2oc3c(C)ccc(C(=O)[*:1])c3nc-2c(C(=O)[*:2])c(N)c1=O; NMeV = CN[C@H](C(=O)O)C(C)C; Nle = CCCC[C@H](N)C(=O)O; Sar = CNCC(=O)O

Legend:
selectin = settings: cited from earlier work; for block selectin binding to sLe^x: in vitro
ICAM-1 [1] = assay: X-ray induction of ICAM-1 expression with enzyme inhibitors; assay type: cell-based, human; settings: inhibitor added prior to irradiation
Text: (§1) The initial step in discerning the potential role of various signal transduction pathways is to add enzyme inhibitors prior to x-radiation. Exocytosis of Weibel-Palade bodies is an active process requiring the translocation of cytoplasmic granules. Previous studies have shown that intracellular signal transduction required for Weibel Palade body translocation involves influx of calcium and protein kinase C activation (calcium, PKC). To determine whether these signaling pathways participate in radiation-mediated Weibel-Palade body exocytosis, the inventors added the intracellular calcium chelator BAPTA and the protein kinase C inhibitor, calphostin, to HUVEC cells prior to irradiation. Cells were then treated with 10 Gy and immunofluorescence was used to localize P-selectin. […] Conversely, the tyrosin kinase inhibitor, herbimycin A, had no effect on Weibel-Palade exocytosis. To determine whether calcium chelation and protein kinase inhibition prevent all molecular responses to ionizing radiation, the inventors' added BAPTA and calphostin prior to radiation-induction of ICAM-1 expression. BAPTA and calphostin had no effect on x-ray induction of ICAM-1. However, herbimycin A and the NFkB inhibitor ALLN attenuated x-ray induction of ICAM-1.

von Willebrand Factor = settings: Vischer et al., 1995; cited from earlier work
P-selectin [2] = assay: P-selectin translocation (Weibel-Palade body exocytosis) in irradiated HUVEC with enzyme inhibitors, immunofluorescence; assay type: cell-based, human; settings: inhibitor added prior to irradiation, 10 Gy
Text: as §1

HL60 cells = assay: HL60 leukocyte adhesion to irradiated HUVECs; assay type: cell-based, human; settings: 1 mM each; added 4 h after 10 Gy and 30 min prior to HL60 cells
Experimental: Human leukemia cell line HL60 has been used to quantify leukocyte adhesion to endothelial cells (Jones et al., 1995). HL60 cells were added to human umbilical vein in endothelial cells (HUVECs) after exposure to 10 Gy or cells treated with otherwise identical conditions without irradiation. Cultures were washed and cells were counted using a hemocytometer. […] Each agent blocked the adherence of HL60 cells to irradiated HUVECs.

[3] = rats, orally; Akao et al. (1994); cited from earlier work
[4] = Narasinga Rao et al. (1994); cited from earlier work
E-selectin [5] = settings: Hallahan et al., 1995, 1996; cited from earlier work
ICAM-1 [6] = settings: Hallahan et al., 1995, 1996; cited from earlier work
E-selectin [7] = target: T1, E-selectin (Homo sapiens, UniProt P16581); settings: Nelson et al. (1993); cited from earlier work
T1 sequence (P16581 22-610): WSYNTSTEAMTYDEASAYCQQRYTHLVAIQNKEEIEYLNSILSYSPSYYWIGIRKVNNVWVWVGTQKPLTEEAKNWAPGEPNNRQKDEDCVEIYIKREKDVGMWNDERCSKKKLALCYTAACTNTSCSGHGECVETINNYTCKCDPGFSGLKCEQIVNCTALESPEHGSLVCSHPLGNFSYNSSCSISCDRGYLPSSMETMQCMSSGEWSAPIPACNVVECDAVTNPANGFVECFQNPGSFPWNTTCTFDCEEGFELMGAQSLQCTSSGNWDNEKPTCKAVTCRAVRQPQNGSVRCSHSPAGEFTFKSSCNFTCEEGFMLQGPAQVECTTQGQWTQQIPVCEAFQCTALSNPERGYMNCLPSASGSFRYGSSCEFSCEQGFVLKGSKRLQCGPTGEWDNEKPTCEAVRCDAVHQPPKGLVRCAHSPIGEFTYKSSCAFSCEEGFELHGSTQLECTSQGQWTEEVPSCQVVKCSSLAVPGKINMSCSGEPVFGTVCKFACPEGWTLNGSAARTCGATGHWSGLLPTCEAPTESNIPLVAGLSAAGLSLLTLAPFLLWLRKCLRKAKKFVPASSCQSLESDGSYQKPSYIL

vWF = settings: disruption of microtubules; cited from earlier work
P-selectin [8] = assay: P-selectin translocation in irradiated HUVEC with microtubule or actin agents, confocal immunofluorescence; assay type: cell-based, human; settings: for x-ray induced translocation of P-selectin: HUVEC pretreated 45 min, staining 60 minutes after x-irradiation (2 Gy); for 8-fold increase in P-selectin immunofluorescence on the cell surface: x-irradiated (2 Gy) HUVEC, confocal microscopy quantified by NIH Image, FIG. 2

Molecule: CC1(C)[C@@H](O)CC[C@]2(C)[C@H]3C(=O)C=C4[C@@H]5C[C@@](C)(C(=O)O)CC[C@]5(C)CC[C@@]4(C)[C@]3(C)CC[C@@H]12 [18-β-glycyrrhetinic acid]
- IC50 (selectin; Narasinga-Rao et al. (1994), read-out: IC50 blocking selectin activity): > 2000 µM

Molecule: CCCC[C@@H](C=O)NC(=O)[C@H](CC(C)C)NC(=O)[C@H](CC(C)C)NC(C)=O [ALLN] (Ac-Leu-Leu-[Nle]-aldehyde)
- x-ray induction of ICAM-1 (ICAM-1 [1]): attenuated

- x-ray induction of ICAM-1 (ICAM-1 [1]): no effect
Molecule: O=C(O)CN(CC(=O)O)c1ccccc1OCCOc1ccccc1N(CC(=O)O)CC(=O)O [BAPTA]
- superoxide induced von Willebrand Factor exocytosis (von Willebrand Factor): inhibited
- P-selectin translocation to the cell membrane (Weibel-Palade exocytosis) (P-selectin [2]): attenuation

Molecule: CC1(C)[C@@H](O[C@H]2O[C@H](C(=O)O)[C@@H](O)[C@H](O)[C@H]2O[C@@H]2O[C@H](C(=O)O)[C@@H](O)[C@H](O)[C@H]2O)CC[C@]2(C)[C@H]3C(=O)C=C4[C@@H]5C[C@@](C)(C(=O)O)CC[C@]5(C)CC[C@@]4(C)[C@]3(C)CC[C@@H]12 [Glycyrrhizin]
- block selectin binding to sLe^x (selectin; Narasinga Rao et al. (1994)): block
- block selectin binding to sLe^x (selectin; Narasinga Rao et al. (1994), listed as glycyrrhizin): blocked
- adherence of HL60 cells to irradiated HUVECs (HL60 cells): blocked
- absorption from the gut [3]: poorly absorbed

Molecule: CC1OC(OC2CCC3(C)C(CCC4(C)C3C(=O)C=C3C5CC(C)(C(=O)O)CCC5(C)CCC34C)C2(C)C)C(O)C(O)C1O [L-fucose derivative]
- in vivo efficacy (anti-inflammatory activity) [4]: most active
- selectin inhibition activity in vitro (selectin; sugars substituted for the glucuronic acids of glycyrrhizin, Narasinga Rao et al. (1994)): most active

Molecule: CC(C)C[C@H](NP(=O)(O)O[C@@H]1O[C@@H](C)[C@H](O)[C@@H](O)[C@H]1O)C(=O)N[C@@H](Cc1c[nH]c2ccccc12)C(=O)[O-].CC(C)C[C@H](NP(=O)(O)O[C@@H]1O[C@@H](C)[C@H](O)[C@@H](O)[C@H]1O)C(=O)N[C@@H](Cc1c[nH]c2ccccc12)C(=O)[O-].[Na+].[Na+] [N-(α-Rhamnopyranosyloxy hydroxyphosphonyl)- Leu-Trp]
- block selectin binding to sLe^x (selectin; Narasinga Rao et al. (1994)): effective

Molecule: Cc1c2oc3c(C)ccc(C(=O)N[C@@H]4C(=O)N[C@H](C(C)C)C(=O)N5CCC[C@H]5C(=O)N(C)CC(=O)N(C)[C@@H](C(C)C)C(=O)O[C@@H]4C)c3nc-2c(C(=O)N[C@@H]2C(=O)N[C@H](C(C)C)C(=O)N3CCC[C@H]3C(=O)N(C)CC(=O)N(C)[C@@H](C(C)C)C(=O)O[C@@H]2C)c(N)c1=O [actinomycin D] (I: T[dV]P[Sar][NMeV] / II: T[dV]P[Sar][NMeV]; ester I:1-I:C, II:1-II:C; linker I:N-II:N via Actinocin(9to1))
- radiation-mediated increase in E-selectin mRNA expression (E-selectin [5]): blocked
- radiation-mediated increase in ICAM-1 mRNA expression (ICAM-1 [6]): blocked

Molecule: COC(=O)CCCCCCCCO[C@@H]1O[C@H](CO)[C@@H](O[C@@H]2O[C@@H](C)[C@@H](O)[C@@H](O)[C@@H]2O)[C@H](O[C@@H]2O[C@H](CO)[C@H](O)[C@H](O[C@]3(C(=O)O)C[C@H](O)[C@@H](NC(C)=O)[C@H]([C@H](O)[C@H](O)CO)O3)[C@H]2O)[C@H]1N [amino substituted sLe^a]
- IC50 (E-selectin [7]): 21 ± 3 µM
- more active than the reducing tetrasaccharide sLe^x (E-selectin [7]): 36 fold

Molecule: Cc1c(C(=O)O)c(O)cc2c1C(=O)c1c(O)c([C@H]3O[C@H](CO)[C@@H](O)[C@H](O)[C@H]3O)c(O)c(O)c1C2=O [carmine]
- block selectin binding to sLe^x (selectin; Narasinga Rao et al. (1994)): effective

Molecule: Cc1c(C(=O)O)c(O)cc2c1C(=O)c1c(O)c([C@@H]3O[C@H](CO)[C@@H](O)[C@H](O)[C@H]3O)c(O)c(O)c1C2=O [carminic acid]
- block selectin binding to sLe^x (selectin; Narasinga Rao et al. (1994)): blocked selectin binding at concentrations comparable to those of glycyrrhizin
- adherence of HL60 cells to irradiated HUVECs (HL60 cells): blocked

Molecule: COc1cc2c(c(OC)c1OC)-c1ccc(OC)c(=O)cc1[C@@H](NC(C)=O)CC2 [colchicine]
- vWF secretion from thrombin-treated endothelial cells (vWF): attenuates

Molecule: C=C1[C@@H](C)[C@H]2[C@H](Cc3ccccc3)NC(=O)[C@]23OC(=O)/C=C/[C@H](O)CCC[C@@H](C)C/C=C/[C@H]3[C@@H]1O [cytochalasin-B]
- x-ray induced translocation of P-selectin (P-selectin [8]): no inhibition
- 8-fold increase in P-selectin immunofluorescence on the cell surface (P-selectin [8]): not

Molecule: CC1(C)[C@@H](O[C@H]2O[C@H](C(=O)O)[C@@H](O)[C@H](O)[C@H]2O[C@@H]2O[C@H](C(=O)O)[C@@H](O)[C@H](O)[C@H]2O)CC[C@]2(C)[C@H]3C(=O)C=C4[C@@H]5C[C@@](C)(C(=O)O)CC[C@]5(C)CC[C@@]4(C)[C@]3(C)CC[C@@H]12 [glycyrrhizic acid (NH^+4), glycyrrhizic acid]
- block selectin binding to sLe^x (selectin; Narasinga Rao et al. (1994)): blocked

Molecule: CO[C@H]1[C@@H](OC)C[C@H](C)[C@@H](OC)C2=CC(=O)C=C(NC(=O)/C(C)=C/C=C\[C@H](OC)[C@@H](OC(N)=O)/C(C)=C/[C@@H]1C)C2=O [herbimycin A]
- P-selectin translocation to the cell membrane (Weibel-Palade exocytosis) (P-selectin [2]): no effect
- x-ray induction of ICAM-1 (ICAM-1 [1]): attenuated

Molecule: C[C@H]1O[C@H](OC2[C@@H](O)[C@@H](O)C(O)[C@H](O)[C@H]2O)[C@@H](N)C[C@@H]1N=C(N)C(=O)O.Cl (some centres unmarked) [kasugamycin hydrochloride]
- block selectin binding to sLe^x (selectin; Narasinga Rao et al. (1994)): effective

Molecule: C[C@H]1O[C@H](O[C@H]2[C@H](O)[C@@H](O)[C@@H](O)[C@H](O)[C@@H]2O)[C@@H](N)C[C@@H]1NC(=N)C(=O)O [kasugamycin]
- block selectin binding to sLe^x (selectin; Narasinga Rao et al. (1994)): effective

Molecule: CC(=O)Nc1c(I)c(NC(C)=O)c(I)c(C(=O)O)c1I.CNC[C@H](O)[C@@H](O)[C@H](O)[C@H](O)CO [meglumine diatrizoate]
- block selectin binding to sLe^x (selectin; Narasinga Rao et al. (1994)): effective

Molecule: CC(=O)Nc1c(I)c(C(=O)O)c(I)c(N(C)C(C)=O)c1I [metrizoic acid (meglumine salt), metrizoic acid]
- block selectin binding to sLe^x (selectin; Narasinga Rao et al. (1994)): effective

Molecule: COC(=O)Nc1nc2cc(C(=O)c3cccs3)ccc2[nH]1 [nocodozol]
- x-ray induced translocation of P-selectin (P-selectin [8]): inhibited
- 8-fold increase in P-selectin immunofluorescence on the cell surface (P-selectin [8]): abrogated

Molecule: O=C(O)c1cc(O)c2c(c1)C(=O)c1cccc(O[C@@H]3O[C@H](CO)[C@@H](O)[C@H](O)[C@H]3O)c1C2=O [rhein-8-glucoside]
- block selectin binding to sLe^x (selectin; Narasinga Rao et al. (1994)): effective

Molecule: O=C(O)[C@H]1O[C@H](O[C@@H]2[C@H](O)[C@@H](O)[C@@H](O[C@@H]3[C@H](O)[C@@H](O)C(O)O[C@@H]3C(=O)O)O[C@@H]2C(=O)O)[C@H](O)[C@@H](O)[C@H]1O (some centres unmarked) [trigalacturonic acid]
- block selectin binding to sLe^x (selectin; Narasinga Rao et al. (1994)): effective

Molecule: C[C@@H]1O[C@@H](O[C@H]2[C@H](O[C@H]3CC[C@@]4(C)[C@@H](CC[C@]5(C)[C@@H]4CC=C4[C@@H]6CC(C)(C)CC[C@]6(C(=O)O)CC[C@]45C)[C@]3(C)CO)OC[C@H](O)[C@@H]2O)[C@H](O)[C@H](O)[C@H]1O [α-Hederin]
- inhibiting concentrations (selectin; selectin binding to sLe^x, Narasinga Rao et al. (1994)): 2 to 3 mM

Molecule: Neu5Acα2-3Galβ1-4 [Fucα1-3]GlcNAc [sialyl Lewis X]
- adherence of HL60 cells to irradiated HUVECs (HL60 cells): blocked

Molecule: [ring-^14C]Chlorhexidine
- block selectin binding to sLe^x (selectin; Narasinga Rao et al. (1994)): effective

- x-ray induction of ICAM-1 (ICAM-1 [1]): no effect
Molecule: calphostin
- P-selectin translocation to the cell membrane (Weibel-Palade exocytosis) (P-selectin [2]): attenuation; also recorded: attenuates

Molecule: carmine ammonia
- block selectin binding to sLe^x (selectin; Narasinga Rao et al. (1994)): effective

Molecule: escin
- block selectin binding to sLe^x (selectin; Narasinga Rao et al. (1994)): effective

Molecule: picrocarmine
- block selectin binding to sLe^x (selectin; Narasinga Rao et al. (1994)): effective
